According to patent US20090048310A1, “AGENT FOR PREVENTION/TREATMENT OF DISEASE CAUSED BY ACYCLOVIR-RESISTANT HERPESVIRUS” (ASTELLAS PHARMA INC., priority 2005, published 2009):
Read-outs that look alike come from different tables or passages of the source.

Key:
[1] = system: ACV-resistant HSV-1 (A4-3^ACV-R strain); test: Anti-ACV-resistant HSV-1 activity assay (plaque reduction); assay type: cell-based
Method: A total of from 100,000 to 150,000 cells of an African green monkey kidney cell (Vero cell) were inoculated into a 24 well plate using a growth medium (Eagle MEM (Nissui) supplemented with 10% FBS) and cultured at 37° C. for 3 to 4 days under 5% CO2 until they became a monolayer. After washing the cells with a maintenance medium, ACV-resistant HSV-1 (A4-3^ACV-R strain) which had been diluted with the maintenance medium (Eagle MEM supplemented with 2% FBS) to a viral titer of from 100 to 250 pfu/200 μl was inoculated therein in 200 μl/well portions. The plate was centrifuged at room temperature at 1500 rpm for 40 minutes and then incubated at 37° C. for 1 hour under 5% CO2 for infection with HSV-1. After washing three times with the maintenance medium, 100 μl of each test drug diluted to an appropriate concentration with the maintenance medium was added to each well. After culturing the cells at 37° C. for 3 to 4 days under 5% CO2, 10% formalin/PBS was added thereto in 200 μl/well portions, and the cells were fixed for 2 to 3 hours. The fixing liquid and culture supernatant were discarded and the plate was washed with water, and then staining was carried out for 2 to 3 minutes by adding a staining liquid (0.025% Crystal Violet) in 100 μl/well portions, and the plate was washed with water and dried at 37° C. The Vero cells infected with HSV-1 cause cell death, and plaques consisting of the dead cells are formed in the mono-layered Vero cells.

[2] = system: ACV-resistant VZV (Kanno-Br^ACV-R strain); test: Anti-ACV-resistant VZV activity assay (plaque reduction); assay type: cell-based, varicella zoster virus (VZV); settings: Human alphaherpesvirus 3, HEF, read-out: EC50, concentration which inhibits 50% of the number of plaques (Example 1)
Method: This assay was carried out in reference to the method described by Shigeta S. in The Journal of Infectious Diseases, 147, 3, 576-584, (1983). Specifically, 10,000 cells of human embryonic fibroblast (HEF) were inoculated into a 96 well microtiter plate using a growth medium (Eagle MEM (Nissui) supplemented with 10% (v/v) fetal bovine serum (FBS, Sigma)) and cultured at 37° C. for 4 days under 5% CO2 until they became a monolayer. […] The plate was centrifuged at room temperature at 2000 rpm for 20 minutes and then incubated at 37° C. for 3 hours under 5% CO2 for infection with VZV. After washing three times with the maintenance medium 100 μl of each test drug diluted to an appropriate concentration with the maintenance medium was added to each well. After culturing the cells at 37° C. for 3 to 4 days under 5% CO2, 10% formalin/PBS was added thereto in 100 μl/well portions, and the cells were fixed for 2 to 3 hours. The fixing liquid and culture supernatant were discarded and the plate was washed with water, and then staining was carried out for 2 to 3 minutes by adding a staining liquid (0.025% Crystal Violet) in 50 μl/well portions, and the plate was washed with water and dried at 37° C. The HEF cells infected with VZV cause cell death, and plaques consisting of the dead cells are formed in the mono-layered HEF cells.

ACV-resistant HSV-1 = ACV-resistant HSV-1 infection lethal model in nude mice; assay type: in vivo, nude mouse (CD-1(ICR)-nu/nu); settings: 100 mg/kg oral twice a day for 15 days; for death suppressing effect (in words): 17 days after infection
Method: ACV-resistant HSV-1 (3×10^6 pfu) was inoculated into the peritoneal cavity of each nude mouse (CD-1(ICR)-nu/nu, […], female, Charles River Japan) to cause infection with the virus. Each compound to be tested was made into a methyl cellulose suspension and orally administered at a dose of 100 mg/kg, twice a day for 15 days starting 1 hour after the infection (from 0 to 14 days after the infection).
During 17 days after the infection, death of the mice caused by ACV-resistant HSV-1 infection was observed every day, and the number of survived animals was counted.

HSV-1 strain WT-51 = test: Cutaneous HSV-1 infection mouse model; assay type: in vivo, HR-1 hairless mouse; settings: oral, methyl cellulose suspension, 10 mg/kg twice a day for 5 days, scores for 17 days
Method: Using a cutaneous HSV-1 infection mouse model prepared in reference to the method of H. Machida et al. (Antiviral Res., 1992, 17, 133-143), the in vivo […] of the compounds of the present invention was tested using an animal model. The skin of each HR-1 hairless mouse [female, 7 weeks of age] was scratched lengthwise and breadthwise several times using a needle and a virus suspension (HSV-1 strain WT-51, 1.5×10^4 PFU/15 μl) was dropped to the scarified region for infection, while anesthetized with diethyl ether.
Tested compounds were administered orally as a methyl cellulose suspension, except for compounds marked with asterisk which were dissolved in 20% Cremophor EL (Nacalai Tesque)/20% polyethylene glycol (PEG) 400/60% H2O solution, starting at 3 hours after the infection, and then at a dose of 10 mg/kg twice a day for 5 days. The symptom of the skin lesion caused by HSV-1 infection were classified in the following scores for 17 days:
Score 0: no signs of infection.
Score 1: localized, barely perceptible small vesicles.
Score 2: slight vesicle spread.
Score 3: large patches of vesicles formed.
Score 4: zosteriform vesicles.
Score 5: large patches of ulcers formed.
Score 6: zosteriform with severe large ulcers.
Score 7: hind limb paralysis or death.
The AUC value was calculated from each group's mean disease score, and the disease inhibitory rate of the group administered with each test compound to the placebo group was calculated using the AUC.

[3] = Human alphaherpesvirus 1, Vero, read-out: EC50, concentration which inhibits 50% of the number of plaques (Example 2), ACV-resistant HSV-1 A4-3 ACV-R strain in Vero cells

SMILES | EC50 [1, 3] [nM] | EC50 ([1]; read-out: EC50, concentration which inhibits 50% of the number of plaques (Example 2), ACV-resistant HSV-1 A4-3 ACV-R strain in Vero cells) [nM] | EC50 [2] [nM] | death suppressing effect (in words) (ACV-resistant HSV-1) | The number of survived animals (n = 10) (ACV-resistant HSV-1; day 0 after infection) | The number of survived animals (n = 10) (ACV-resistant HSV-1; day 1 after infection) | The number of survived animals (n = 10) (ACV-resistant HSV-1; day 2 after infection) | The number of survived animals (n = 10) (ACV-resistant HSV-1; day 4 after infection) | The number of survived animals (n = 10) (ACV-resistant HSV-1; day 5 after infection) | The number of survived animals (n = 10) (ACV-resistant HSV-1; day 6 after infection) | The number of survived animals (n = 10) (ACV-resistant HSV-1; day 7 after infection) | The number of survived animals (n = 10) (ACV-resistant HSV-1; day 8 after infection) | The number of survived animals (n = 10) (ACV-resistant HSV-1; day 9 after infection) | The number of survived animals (n = 10) (ACV-resistant HSV-1; day 10 after infection) | The number of survived animals (n = 10) (ACV-resistant HSV-1; day 11 after infection) | The number of survived animals (n = 10) (ACV-resistant HSV-1; day 12 after infection) | The number of survived animals (n = 10) (ACV-resistant HSV-1; day 14 after infection) | The number of survived animals (n = 10) (ACV-resistant HSV-1; day 16 after infection) | The number of survived animals (n = 10) (ACV-resistant HSV-1; day 17 after infection) | Inhibition ratio (%) (disease inhibitory rate vs placebo from AUC of mean disease score) (HSV-1 strain WT-51)
Nc1nc2c(ncn2COCCO)c(=O)[nH]1 [ACV, acyclovir] | 68000 | 120000 | – | – | – | – | – | – | – | – | – | – | – | – | – | – | – | – | – | –
Cc1ccc(N(CC(=O)Nc2ccc(-c3cocn3)cc2)C(=O)C2CCS(=O)(=O)CC2)cc1 [Preparation 2, N-(4-methylphenyl)-N-(2-{[4-(1,3-oxazol-4-yl)phenyl]amino}-2-oxoethyl)tetrahydro-2H-thiopyran-4-carboxamide 1,1-dioxide] | 35 | – | 35 | completely suppressed death of the mice | 10 | 10 | 10 | 10 | 10 | 10 | 10 | 10 | 10 | 10 | 10 | 10 | 10 | 10 | 10 | –
Cc1cccc(C)c1N(CC(=O)Nc1ccc(-c2ncon2)cc1)C(=O)C1CCS(=O)(=O)CC1 [Preparation 27, N-(2,6-dimethylphenyl)-N-(2-{[4-(1,2,4-oxadiazol-3-yl)phenyl]amino}-2-oxoethyl)tetrahydro-2H-thiopyran-4-carboxamide 1,1-dioxide] | 68 | – | 82 | completely suppressed death of the mice | 10 | 10 | 10 | 10 | 10 | 10 | 10 | 10 | 10 | 10 | 10 | 10 | 10 | 10 | 10 | –
Cc1ccccc1N(CC(=O)Nc1ccc(-c2cocn2)cc1)C(=O)C1CCS(=O)(=O)CC1 [Preparation 4, N-(2-methylphenyl)-N-(2-{[4-(1,3-oxazol-4-yl)phenyl]amino}-2-oxoethyl)tetrahydro-2H-thiopyran-4-carboxamide 1,1-dioxide] | – | – | – | – | – | – | – | – | – | – | – | – | – | – | – | – | – | – | – | 77
Cc1ccc(N(CC(=O)Nc2ccc(-c3ncon3)cc2)C(=O)C2CCS(=O)(=O)CC2)cc1F [Preparation 35, N-(3-fluoro-4-methylphenyl)-N-(2-{[4-(1,2,4-oxadiazol-3-yl)phenyl]amino}-2-oxoethyl)tetrahydro-2H-thiopyran-4-carboxamide 1,1-dioxide] | – | – | – | – | – | – | – | – | – | – | – | – | – | – | – | – | – | – | – | 82
